From patent US9999605B2, “Preparation for treatment of a non-oral treatment site comprising an active chlorine compound and amino acids” (RLS GLOBAL AB, priority 2012, dated 2018) come the findings set out here.

In assay [1] the test system is amputation wound. Kind of assay: Example 4: treatment of an amputation wound. The assay is classed as in vivo, human. The conditions noted are these: 750 mg×3, prescribed May 24, 2012, before the test treatments. As for the experimental part: If nothing else is mentioned herein below, the treatment preparation used in the examples below was prepared just before application by mixing one volume of a component containing aqueous NaOCl in an amount of 1-2% (by weight) with one volume of a component containing amino acids lys+Glu+Leu (1:1:1 relation and 0.7-0.8% total amino content by weight), TiO2 (0.04% by weight), NaCl (0.3-0.6% by weight), Na-CMC (medium viscosity; 3% by weight), and NaOH (added to adjust the pH to be 9.5-10.5 by weight). Medium viscosity of carboxymethyl cellulose is defined as 400-800 (mPas).
The components were mixed and the resulting mixture, i.e. the treatment preparation, was applied immediately (within seconds at the most one minute) to the treatment site, e.g. an ulcer. In this way there was provided that the mentioned chemical reaction forming halogenated amino acids occurs in contact with the treatment site. The resulting chemical reaction was allowed to proceed so as to separate dead tissue from healthy tissue as well as decomposing and/or destroying bacteria. The mixture in the form a solution was left within the treatment area, e.g. ulcer, for 5 minutes or less, wherein the reaction proceeds such that bubbles and a smell of chlorine appear and then disappear in the preparation. […]

In assay [2] the test system is Staphylococcus. Kind of assay: Example 2: bacterial cultivation, resistance. The assay is classed as cell-based. The conditions noted are these: bacterial cultivation from the leg ulcer.

Structures are written as SMILES.

`Cc1onc(-c2c(F)cccc2Cl)c1C(=O)N[C@@H]1C(=O)N2[C@@H]1SC(C)(C)[C@@H]2C(=O)O` [Heracillin®]: the “effect of antibiotic on non-healing amputation wound” value in assay [1] is “did not improve their condition”.

With `CC1(C)S[C@@H]2[C@H](NC(=O)COc3ccccc3)C(=O)N2[C@H]1C(=O)O` [fenoximetylpenicillin], in assay [2], the “resistance of cultivated Staphylococcus” value is “resistant”.

In the case of `Cc1onc(-c2c(F)cccc2Cl)c1C(=O)N[C@@H]1C(=O)N2[C@@H]1SC(C)(C)[C@@H]2C(=O)O` [flukloxacillin], the “resistance of cultivated Staphylococcus” value in assay [2] is “resistant”.
